Measured values: ChEMBL document CHEMBL3045990, “Inhibition of Cathepsin D protease activity by Punica granatum fruit peel extracts, isolates, and semisynthetic analogs” (Med Chem Res, 2013)
≈ marks a conversion by molar mass, not a printed value. Calls of active or inactive are those of the source. The rule behind the calls is not given here.

Columns and labels:
Cathepsin D [1] = molecular target: T1, Cathepsin D (Homo sapiens, UniProt P07339); assay: Inhibition of cathepsin D (unknown origin) using hemoglobin as substrate at 20 ug/mL after 30 min by spectrophotometric analysis
T1 sequence (P07339 65-162 limits assumed): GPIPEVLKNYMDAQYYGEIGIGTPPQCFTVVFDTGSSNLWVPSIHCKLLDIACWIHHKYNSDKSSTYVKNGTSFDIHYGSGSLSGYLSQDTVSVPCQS
T1 sequence (P07339 169-412 limits assumed): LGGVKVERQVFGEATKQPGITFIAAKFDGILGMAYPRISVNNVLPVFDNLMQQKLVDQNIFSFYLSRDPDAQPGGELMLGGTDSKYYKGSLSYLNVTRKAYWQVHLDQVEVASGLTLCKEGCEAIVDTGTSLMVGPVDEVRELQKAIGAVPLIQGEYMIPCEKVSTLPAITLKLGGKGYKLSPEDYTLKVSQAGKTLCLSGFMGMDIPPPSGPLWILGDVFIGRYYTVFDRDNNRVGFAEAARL

Cathepsin D [2] = molecular target: T1, Cathepsin D; assay: Inhibition of cathepsin D (unknown origin) using hemoglobin as substrate after 30 min by spectrophotometric analysis
MDA-MB-231 = assay: Cytotoxicity against Homo sapiens (human) MDA-MB-231 cells assessed as growth inhibition by MTT assay; assay type: functional, cell-based

| SMILES | inhibition (Cathepsin D [1]) | IC50 (Cathepsin D [2]) | growth inhibition (GI) (MDA-MB-231) | IC50 (MDA-MB-231; Homo sapiens, MDA-MB-231) |
| --- | --- | --- | --- | --- |
| CC(=O)O[C@H]1CC[C@]2(C)[C@H]3CC=C4[C@@H]5[C@@H](C)[C@H](C)CC[C@]5(C(=O)O)CC[C@@]4(C)[C@]3(C)CC[C@H]2C1(C)C | inactive |  |  |  |
| CC[C@H](CC[C@@H](C)[C@H]1CC[C@H]2[C@@H]3CC=C4C[C@@H](O)CC[C@]4(C)[C@H]3CC[C@]12C)C(C)C | inactive |  |  |  |
| CC[C@H](CC[C@@H](C)[C@H]1CC[C@H]2[C@@H]3CC=C4C[C@@H](OC(C)=O)CC[C@]4(C)[C@H]3CC[C@]12C)C(C)C | inactive |  |  |  |
| C[C@H]1[C@H](C)CC[C@]2(C(N)=O)CC[C@]3(C)C(=CC[C@@H]4[C@@]5(C)CC[C@H](O)C(C)(C)[C@@H]5CC[C@]43C)[C@H]12 | inactive |  |  |  |
| CC[C@H](CC[C@@H](C)[C@H]1CC[C@H]2[C@@H]3CC=C4CC(=O)CC[C@]4(C)[C@H]3CC[C@]12C)C(C)C [BETA-SITOSTENONE] |  | 9.4 µM |  |  |
| COC(=O)[C@]12CC[C@@H](C)[C@H](C)[C@H]1C1=CC[C@@H]3[C@@]4(C)CC[C@H](O)C(C)(C)[C@@H]4CC[C@@]3(C)[C@]1(C)CC2 [METHYL URSOLATE] |  | 9.45 µM | <5% |  |
| O=C(/C=C/C=C/c1ccc2c(c1)OCO2)N1CCCCC1 [PIPERINE] |  | 42.3 µM |  | 58.4 µg/mL (≈ 205 µM) |
| C[C@H]1[C@H](C)CC[C@]2(C(=O)O)CC[C@]3(C)C(=CC[C@@H]4[C@@]5(C)CC[C@H](O)C(C)(C)[C@@H]5CC[C@]43C)[C@H]12 [URSOLIC ACID] |  | 18.2 µM | <5% |  |
| C[C@H]1[C@H](C)CC[C@]2(C(=O)O)CC[C@]3(C)C(=CC[C@@H]4[C@@]5(C)CCC(=O)C(C)(C)[C@@H]5CC[C@]43C)[C@H]12 [URSONIC ACID] |  | 14.1 µM | <5% |  |
